Assay results as given in paper PMC6429262, “Design and Synthesis of Novel Anti-Proliferative Emodin Derivatives and Studies on their Cell Cycle Arrest, Apoptosis Pathway and Migration” (Molecules, 2019).

Key:
HepG2 cells = assay: CellTiter-Glo Luminescent Cell Viability Assay, HepG2; format: cell-based, human; conditions: for IC50: HepG2 cells, 48 h, mean of three independent experiments
Method: (§1) The in vitro anti-proliferative activities of all the novel synthesized compounds were evaluated against HepG2 cells and MCF-7 cells by CellTiter-Glo® Luminescent Cell Viability Assay, using paclitaxel (a clinically used drug) as a positive control. Emodin (1) and compound 2 were also included for comparison.
(§2) HepG2 cells and MCF-7 cells were purchased from American Type Culture Collection (ATCC, Manassas, VA, USA). Cells were cultured in T75 flask (430641, Corning, New York, NY, USA), supplemented with high-glucose DMEM medium (Dulbecco’s modified Eagle’s medium, 11965-092, Gibco, New York, NY, USA) containing 10% Fetal bovine serum (FBS) and 1% penicillin (100 units/mL)-streptomycin (100 µg/mL) in a humidified incubator at 37 °C under 5% CO2 and 95% relative humidity (RH) atmosphere. The cells were harvested for metabolomics experiments using cell scrapers.
(§3) HepG2 cells and MCF-7 cells in 40 µL DMEM supplemented with 10% FBS were seeded at a density of 500 cells/well in 384-well cell culture plate (3570, Corning), respectively. After 24 h, the medium was substituted with fresh medium containing various sample solutions in DMSO (0.5%, v/v) at a dose range of 0.14–100 µM with 3-fold serial dilutions, and cells were cultured for another 48 h. Cells were cultured in medium without samples but 0.5% DMSO served as a control. All measurements were determined in triplicate for each treatment. After the sample treatment for 48 h, 20 µL CellTiter-Glo (G7573, Promega, Fitchburg, WI, USA) was added to each well containing cells and the contents were mixed for 2 min on an orbital shaker to induce cell lysis. The plates were then incubated at room temperature for 20 min to stabilize the luminescent signal. The luminescence was recorded on an Envision 2014 (Perkin Elmer, Waltham, MA, UAS). The IC50 values represented the samples’ concentrations required to inhibit 50% of cell proliferation and were calculated from a calibration curve by linear regression using GraphPad Prism 7.0 software (GraphPad Software, San Diego, CA, USA).

MCF-7 cells = assay: CellTiter-Glo Luminescent Cell Viability Assay, MCF-7; format: cell-based, human; conditions: for IC50: MCF-7 cells, 48 h, mean of three independent experiments
Method: as §1, §2, §3

L02 cells = assay: Cytotoxic activity against human normal liver cells (L02); format: cell-based; conditions: Homo sapiens, L02, human normal liver L02 cells

Molecule	IC50 (HepG2 cells; Homo sapiens, HepG2, 48 h)	IC50 (MCF-7 cells; Homo sapiens, MCF7, 48 h)	also measured
Cc1cc(O)c2c(c1)C(=O)c1cc(OCCOC(=O)[C@@H](C)N)cc(O)c1C2=O [Compound 3b, (R)-1-(2-(4,5-Dihydroxy-7-methyl-9,10-dioxo-9,10-dihydroanthracen-2-yloxy)ethoxy)-1-oxopropan-2-aminium 2,2,2-trifluoroacetate]	8.22 ± 0.13 µM	8.99 ± 0.64 µM	IC50 (L02 cells): 33.6 ± 0.36 µM
Cc1cc(O)c2c(c1)C(=O)c1cc(OCCOC(=O)[C@H](C)N)cc(O)c1C2=O [Compound 3c, (S)-1-(2-(4,5-Dihydroxy-7-methyl-9,10-dioxo-9,10-dihydroanthracen-2-yloxy)ethoxy)-1-oxopropan-2-aminium 2,2,2-trifluoroacetate]	9.52 ± 0.22 µM	10.2 ± 0.96 µM	IC50 (L02 cells): 37.3 ± 0.78 µM
CN[C@H](C)C(=O)OCCOc1cc(O)c2c(c1)C(=O)c1cc(C)cc(O)c1C2=O [Compound 4a, (R)-1-(2-(4,5-Dihydroxy-7-methyl-9,10-dioxo-9,10-dihydroanthracen-2-yloxy)ethoxy)-N-methyl-1-oxo-propan-2-aminium 2,2,2-trifluoroacetate]	13.7 ± 0.89 µM	23.2 ± 0.33 µM	
CN[C@@H](C)C(=O)OCCOc1cc(O)c2c(c1)C(=O)c1cc(C)cc(O)c1C2=O.O=C(O)C(F)(F)F [Compound 4b, (S)-1-(2-(4,5-Dihydroxy-7-methyl-9,10-dioxo-9,10-dihydroanthracen-2-yloxy)ethoxy)-N-methyl-1-oxo-propan-2-aminium 2,2,2-trifluoroacetate]	40 ± 2.85 µM	68.8 ± 2.25 µM	activity reduction compared to emodin (1) (MCF-7 cells; MCF-7 cell lines): 6 fold
Cc1cc(O)c2c(c1)C(=O)c1cc(OCCOC(=O)[C@@H](C)N(C)C)cc(O)c1C2=O [Compound 5a, (R)-1-(2-(4,5-Dihydroxy-7-methyl-9,10-dioxo-9,10-dihydroanthracen-2-yloxy)ethoxy)-N,N-dimethyl-1-oxo-propan-2-aminium 2,2,2-trifluoroacetate]	18.1 ± 2.79 µM	25.2 ± 1.92 µM	
Cc1cc(O)c2c(c1)C(=O)c1cc(OCCOC(=O)[C@H](C)N(C)C)cc(O)c1C2=O [Compound 5b, (S)-1-(2-(4,5-Dihydroxy-7-methyl-9,10-dioxo-9,10-dihydroanthracen-2-yloxy)ethoxy)-N,N-dimethyl-1-oxo-propan-2-aminium 2,2,2-trifluoroacetate]	18.6 ± 2.07 µM	16.2 ± 0.67 µM	
Cc1cc(O)c2c(c1)C(=O)c1cc(OCCCOC(=O)[C@H](C)N)cc(O)c1C2=O [Compound 7b, (S)-1-(3-(4,5-Dihydroxy-7-methyl-9,10-dioxo-9,10-dihydroanthracen-2-yloxy)propoxy)-1-oxopropan-2-aminium 2,2,2-trifluoroacetate]	6.47 ± 0.21 µM	6.47 ± 0.18 µM	
Cc1cc(O)c2c(c1)C(=O)c1cc(OCCCCOC(=O)[C@@H](C)N)cc(O)c1C2=O [Compound 7c, (R)-1-(4-(4,5-Dihydroxy-7-methyl-9,10-dioxo-9,10-dihydroanthracen-2-yloxy)butoxy)-1-oxopropan-2-aminium 2,2,2-trifluoroacetate]	11.4 ± 1.69 µM	12.7 ± 0.55 µM	
Cc1cc(O)c2c(c1)C(=O)c1cc(OCCCCOC(=O)[C@H](C)N)cc(O)c1C2=O [Compound 7d, (S)-1-(4-(4,5-Dihydroxy-7-methyl-9,10-dioxo-9,10-dihydroanthracen-2-yloxy)butoxy)-1-oxopropan-2-aminium 2,2,2-trifluoroacetate]	11 ± 1.47 µM	14.9 ± 0.57 µM	
Cc1cc(O)c2c(c1)C(=O)c1cc(OCCCCCOC(=O)[C@@H](C)N)cc(O)c1C2=O [Compound 7e, (R)-1-(5-(4,5-Dihydroxy-7-methyl-9,10-dioxo-9,10-dihydroanthracen-2-yloxy)pentyloxy)-1-oxopropan-2-aminium 2,2,2-trifluoroacetate]	8.58 ± 0.77 µM	9.11 ± 0.67 µM	IC50 (L02 cells): 27.7 ± 0.54 µM
Cc1cc(O)c2c(c1)C(=O)c1cc(OCCCCCOC(=O)[C@H](C)N)cc(O)c1C2=O [Compound 7f, (S)-1-(5-(4,5-Dihydroxy-7-methyl-9,10-dioxo-9,10-dihydroanthracen-2-yloxy)pentyloxy)-1-oxopropan-2-aminium 2,2,2-trifluoroacetate]	10.6 ± 0.97 µM	15.8 ± 1.45 µM	IC50 (L02 cells): 24.3 ± 0.68 µM
Cc1cc(O)c2c(c1)C(=O)c1cc(OCCOCCOC(=O)[C@@H](C)N)cc(O)c1C2=O [Compound 7g, (R)-1-(2-(2-(4,5-Dihydroxy-7-methyl-9,10-dioxo-9,10-dihydroanthracen-2-yloxy)ethoxy)ethoxy)-1-oxo-propan-2-aminium 2,2,2-trifluoroacetate]	15.2 ± 0.66 µM	12.6 ± 0.46 µM	
Cc1cc(O)c2c(c1)C(=O)c1cc(OCCOCCOC(=O)[C@H](C)N)cc(O)c1C2=O [Compound 7h, (S)-1-(2-(2-(4,5-Dihydroxy-7-methyl-9,10-dioxo-9,10-dihydroanthracen-2-yloxy)ethoxy)ethoxy)-1-oxo-propan-2-aminium 2,2,2-trifluoroacetate]	11.4 ± 0.47 µM	12.5 ± 0.44 µM	
Cc1cc(O)c2c(c1)C(=O)c1cc(OCCOCCOCCOC(=O)[C@@H](C)N)cc(O)c1C2=O [Compound 7i, (R)-1-(2-(2-(2-(4,5-Dihydroxy-7-methyl-9,10-dioxo-9,10-dihydroanthracen-2-yloxy)ethoxy)ethoxy)ethoxy)-1-oxopropan-2-aminium 2,2,2-trifluoroacetate]	28.7 ± 0.87 µM	20.8 ± 1.87 µM	
Cc1cc(O)c2c(c1)C(=O)c1cc(OCCOCCOCCOC(=O)[C@H](C)N)cc(O)c1C2=O [Compound 7j, (S)-1-(2-(2-(2-(4,5-Dihydroxy-7-methyl-9,10-dioxo-9,10-dihydroanthracen-2-yloxy)ethoxy)ethoxy)ethoxy)-1-oxopropan-2-aminium 2,2,2-trifluoroacetate]	31.9 ± 2.77 µM	25.6 ± 0.58 µM	
Cc1cc(O)c2c(c1)C(=O)c1cc(OCCOCCOCCOCCOC(=O)[C@@H](C)N)cc(O)c1C2=O [Compound 7k, (R)-1-(4,5-Dihydroxy-7-methyl-9,10-dioxo-9,10-dihydroanthracen-2-yloxy)-13-oxo-3,6,9,12-tetraoxapenta-decan-14-aminium 2,2,2-trifluoroacetate]	37.2 ± 2.44 µM	37.8 ± 2.44 µM	
Cc1cc(O)c2c(c1)C(=O)c1cc(OCCOCCOCCOCCOC(=O)[C@H](C)N)cc(O)c1C2=O [Compound 7l, (S)-1-(4,5-Dihydroxy-7-methyl-9,10-dioxo-9,10-dihydroanthracen-2-yloxy)-13-oxo-3,6,9,12-tetraoxa-pentadecan-14-aminium 2,2,2-trifluoroacetate]	60.6 ± 4.26 µM	41.8 ± 2.24 µM	
Cc1cc(O)c2c(c1)C(=O)c1cc(O)cc(O)c1C2=O [Emodin, 3-methyl-1,6,8-trihydroxyanthraquinone]	43.9 ± 1.28 µM	52.7 ± 2.22 µM	Selectivity Index HepG2 (HepG2 cells; IC50 on normal cells (L02)/IC50 on cancer cells (HepG2)): 0.51; Selectivity Index MCF-7 (MCF-7 cells; IC50 on normal cells (L02)/IC50 on cancer cells (MCF-7)): 0.43; IC50 (L02 cells): 22.52 ± 0.18 µM
CC(=O)O[C@H]1C(=O)[C@@]2(C)[C@H]([C@H](OC(=O)c3ccccc3)[C@]3(O)C[C@H](OC(=O)[C@H](O)[C@@H](NC(=O)c4ccccc4)c4ccccc4)C(C)=C1C3(C)C)[C@]1(OC(C)=O)CO[C@@H]1C[C@@H]2O [Paclitaxel, reference compound]	10.3 ± 0.26 µM	4.89 ± 0.11 µM	
(S)-1-(2-(4,5-Dihydroxy-7-methyl-9,10-dioxo-9,10-dihydroanthracen-2-yloxy)ethoxy)-3-(4-hydroxyphenyl)-1-oxopropan-2-aminium 2,2,2-trifluoroacetate [Compound 3z]			IC50 (HepG2 cells): 14.1 ± 1.22 µM; IC50 (MCF-7 cells): 17.3 ± 0.26 µM
